Assay results as given in patent US20240053326A1, “TESTING COLON CANCER DRUGS FOR IMMUNOMODULATORY EFFECTS” (BROWN UNIVERSITY, priority 2022, published 2024).

System: HCT-116, HT-29, and KM12C colon cancer cell lines
Test: Cytokinome (cytokine, chemokine, growth factor) profiling of cell culture supernatant after small-molecule treatment, Luminex 200
Format: cell-based, human
Settings: for decreases in VEGF: 48 h treatment at IC-10 to IC-90, slope of linear regression, count of drug/cell line groups (HCT-116, HT-29, KM12C) with analyte among top five most down-regulated
Procedure: We designed a high-throughput custom multiplex cytokine, chemokine, and growth factor profiling panel based on both pro- and anti-inflammatory markers, as well as cytokines and chemokines involved in the recruitment and activation of immune cells such as natural killer (NK) and T cells. Cell lines were treated with the drug panel and cell culture supernatants were analyzed using Luminex 200 technology (FIG. 2). Cell lines were treated at differing concentrations (IC-10, IC-30, IC-50, IC-70, and IC-90) to determine dose-response effects for each small-molecule. It is important to emphasize that the panel was designed to analyze soluble factors that are secreted or shed by tumor cells post-treatment with drug.
Cells were plated at 3.5×10^4 cells in a 48 well plate (Thermo Fisher Scientific, Waltham, MA, USA) in complete medium and incubated at 37° C. with 5% CO2. At 24 hours after plating, almost all the tumor cells were adherent to the bottom of the flask and the complete medium was replaced with drug-containing medium. Subsequently, the culture supernatants were collected after 48 hours of incubation and were frozen at −80° C. until the measurement of cytokines was performed. The day of analysis, samples were thawed and centrifuged to remove cellular debris.
An R&D systems Human Premixed Multi-Analyte Kit (R&D Systems, Inc., Minneapolis, MN) was run on a Luminex 200 Instrument (LX200-XPON-RUO, Luminex Corporation, Austin, TX) according to the manufacturer's instructions. Cell culture supernatant levels of TNF-alpha, IL-6, IL-8/CXCL8, Ferritin, IFN-beta, IL-10, CCL2/JE/MCP-1, VEGF, CXCL13/BLC/BCA-1, IFN-gamma, CCL20/MIP-3 alpha, CCL3/MIP-1 alpha, CCL22/MDC, CCL4/MIP-1 beta, IL-4, IL-17/IL-17a, TRAIL R2/TNFRSF10B, GM-CSF, CXCL5/ENA-78, CXCL9/MIG, G-CSF, CXCL11/I-TAC, Granzyme B, CCL5/RANTES, Prolactin, IFN-alpha, CXCL14/BRAK, IL-12/IL-23 p40, CXCL10/IP-10/CRG2, CCL7/MCP-3/MARC, IL-7, CCL8/MCP-2, TRANCE/TNFSF11/RANK L, IL-15, TRAIL R3/TNFRSF10C, CCL11/Eotaxin, IL-18/IL-1F4, TRAIL/TNFSF10, IL-21, and C-Reactive Protein/CRP were measured.
A quantitative analysis with 6 standards and a minimum of 50 counts per bead region was used with the Luminex to generate analyte values reported as picograms/milliliter (pg/mL). Cytokine concentrations less than the lower limit of detection for each particular cytokine were recoded as zero. Cytokines without detectable expression levels were removed from further analysis of each cell line. Each drug was tested at different inhibitory concentrations (IC-10, IC-30, IC-50, IC-70, and IC-90), and these varying concentrations were used to measure a dose-response effect on cytokine expression. Cytokine dose-response effect was modeled by simple linear regression for each drug. The slopes of the linear regressions were compared. Data analysis and visualization were generated using R (R Development Core Team, 2020).

[1] = 48 h, IC-10 to IC-90, regression slope, count of drug/cell line groups, top five most down-regulated
[2] = 48 h, IC-10 to IC-90, regression slope, count of drug/cell line groups, top five most up-regulated

Structure (SMILES) | decreases in CCL3/MIP-1 alpha [1] | decreases in CXCL5/ENA-78 [1] | decreases in CXCL9/MIG [1] | decreases in IL-8/CXCL8 [1] | increases in CXCL14/BRAK [2] | increases in Prolactin [2] | decreases in VEGF | decreases in CXCL14/BRAK [1] | increases in CXCL5/ENA-78 [2] | increases in IL-8/CXCL8 [2] | decreases in CXCL13/BLC/BCA-1 [1] | increases in CCL5/RANTES [2] | increases in IL-18/IL-1F4 [2] | increases in sTRAIL-R3 [2]
CNC(=O)c1cc(Oc2ccc(NC(=O)Nc3ccc(Cl)c(C(F)(F)F)c3)c(F)c2)ccn1 [Regorafenib] | 2 out of 3 | 2 out of 3 | 3 out of 3 | 3 out of 3 | 2 out of 3 | 2 out of 3 | 3 out of 3 | – | – | – | – | – | – | –
COc1ccc(CN2C3CC2CN(c2ccc(-c4cc(OCC(C)(C)O)cn5ncc(C#N)c45)cn2)C3)cn1 [Selpercatinib] | 2 out of 3 | – | – | – | – | 2 out of 3 | 3 out of 3 | 2 out of 3 | 3 out of 3 | 2 out of 3 | – | – | – | –
C[C@@H](Oc1cc(-c2cnn(C3CCNCC3)c2)cnc1N)c1c(Cl)ccc(F)c1Cl [Crizotinib] | – | – | 2 out of 3 | – | 2 out of 3 | 2 out of 3 | 3 out of 3 | – | – | 2 out of 3 | 2 out of 3 | – | – | –
O=C(Nc1cnn2ccc(N3CCC[C@@H]3c3cc(F)ccc3F)nc12)N1CC[C@H](O)C1 [Larotrectinib] | 2 out of 3 | – | 3 out of 3 | 2 out of 3 | – | 2 out of 3 | 3 out of 3 | – | – | – | – | 2 out of 3 | 2 out of 3 | –
Cn1cc(C2=C(c3coc4ccc(F)cc34)C(=O)NC2=O)c2cc3c(cc21)OCO3 [9-ING-41] | 2 out of 3 | – | 3 out of 3 | – | 3 out of 3 | – | 3 out of 3 | – | – | 2 out of 3 | – | – | – | 2 out of 3
